In US20190330607A1, “USE OF A SUGAR TOLERANT BETA-GLUCOSIDASE” (Universitè de Liége, priority 2016, published 2019):
Like-named read-outs stand apart in the source and are kept apart here.

Experiments:
Type in all cases: biochemical
[1] = test system: BglC (beta-glucosidase of Streptomyces scabies 87-22); assay: Relative enzyme activity of BglC with p-NPβG as substrate in presence of tested reagent
Experimental: (§1) Relative enzyme activity was determined using p-nitrophenyl-β-D-glucopyranoside (p-NPβG) as substrate. The reaction mixture (200 μL) containing 50 mM HEPES buffer (pH 7.5), 0.2 μM of purified BglC and the tested reagent was incubated 10 minutes at 25° C. before addition of 1 mM p-NPβG. The reaction was carried out at 25° C. for 2 minutes and stopped by addition of 100 μL of 2 M Na2CO3. All assays were performed under these conditions, unless otherwise indicated. The release of p-nitrophenol (p-NP) was measured at 405 nm with a TECAN Infinite® 200 PRO. The activity assayed in absence of the tested reagent was recorded as 100%.

[2] = Kinetic analysis of BglC on cellobiose (glucose released, D-Glucose HK Assay Kit)
Experimental: Kinetic parameters of BglC (Km and kcat) were determined by measuring the glucose released at various cellobiose concentrations in 50 mM HEPES buffer pH 7.5 at 26° C. Reaction time of 7 min was chosen to ensure initial rates of hydrolysis. The glucose released was determined using the D-Glucose HK Assay Kit from Megazyme (Ireland). Data were fitted to the Henri-Michaelis-Menten equation using the GraphPad Prism 5 software.

[3] = Effect of temperature and pH on BglC activity (p-NPβG)
Experimental: as §1
The optimal temperature was determined by measuring the relative enzyme activity of BglC in HEPES 50 mM pH 7.5 at 20, 25, 30, 37 and 42° C. To measure the effect of pH on activity of BglC, relative activity was essayed in the range of pH 5.0-6.5 (50 mM MES buffer), pH 7.0-8.5 (50 mM HEPES buffer) and pH 9-10 (50 mM CHES buffer) at 25° C.

[4] = Substrate specificity of BglC by thin layer chromatography; details: 30° C.
Experimental: The cleavage ability of BglC was tested against different cello-oligosaccharides (cellobiose, cellotriose, cellotetraose, cellopentaose and cellohexaose (Megazyme; Ireland)) or different disaccharides (lactose, saccharose, maltose, threalose and turanose). Reaction mixtures (100 μL) containing 50 mM HEPES buffer pH 7.5, 0.4 μM of purified BglC, 6.25 mM of cello-oligosaccharides or 12.5 mM of disaccharides were incubated at 30° C. 15 μL of each sample were collected at 0, 15, 30 and 60 min than heated at 98° C. for 5 min to stop the reaction. Each sample was spotted onto aluminum-backed Silica gel plate (Sigma). The plates were developed with chloroform-methanol-acetic acid-water solvent (50:50:15:5, vol/vol), air dried, dipped in 5% H2SO4 in ethanol and finally heated over a hot plate until visualization of carbohydrate spots.

[5] = Time course of cellobiose hydrolysis by BglC over 7 days, HPLC
Experimental: Glucose and cellobiose analysis was performed by HPLC on an Aminex HPX-87P Column (300×7.8 mm) heated to 80° C. with H2O as eluent (flow rate 0.6 mL/min). Peaks were detected by refractive index detector (Waters 2414).
The tolerance of BglC to glucose was further investigated during prolonged reaction time (7 days). Cellobiose and glucose quantification were performed by HPLC (FIG. 5). 80% of cellobiose was hydrolyzed in 48 h (FIG. 5).

[6] = reagent 10 mM, activity without additive = 100%
[7] = reagent 10%, activity without additive = 100%
[8] = Oses (15%), control = 100%, p-NPβG substrate
[9] = substrate cellobiose, 50 mM HEPES pH 7.5, 26° C.

## O[C@H](CS)[C@H](O)CS (racemic) [DTT, dithiothreitol]
[1]; [6]
  Relative initial rate of hydrolysis (%): 116 ± 5%

## O=C(O)CN(CCN(CC(=O)O)CC(=O)O)CC(=O)O [EDTA, ethylene diamine tetraacetic acid]
[1]; [6]
  Relative initial rate of hydrolysis (%): 98 ± 15%

## CCO [Ethanol, ethanol]
[1]; ethanol 0 to 40% tested (FIG. 6)
  ethanol concentration with maximal enhancing activity: 15%
[1]; [7]
  Relative initial rate of hydrolysis (%): 218 ± 6%

## O=C(CO)[C@@H](O)[C@H](O)[C@H](O)CO [Fructose, fructose]
[1]; [8]
  Relative initial rate of hydrolysis (%): 178 ± 9%

## O=C[C@H](O)[C@@H](O)[C@@H](O)[C@H](O)CO [Galaclose, galactose]
[1]; [8]
  Relative initial rate of hydrolysis (%): 255 ± 9%

## CO [Methanol, methanol]
[1]; [7]
  Relative initial rate of hydrolysis (%): 65 ± 6%

## [Cl-].[Na+] [NaCl]
[1]; NaCl 500 mM (FIG. 7)
  activity of BglC kept: around 70%
[1]; NaCl 1 M (FIG. 7)
  activity of BglC: about 50%
[1]; NaCl below 100 mM (FIG. 7)
  effect on capacity of the enzyme to hydrolyze p-NPβG: does not significantly alter

## CCCCCCCCCCCCOS(=O)(=O)[O-].[Na+] [SDS]
[1]; [6]
  Relative initial rate of hydrolysis (%): 64 ± 3%

## OC[C@@H](O)[C@@H](O)[C@H](O)[C@@H](O)CO [Sorbitol, sorbitol]
[1]; [8]
  Relative initial rate of hydrolysis (%): 202 ± 1%

## NC(N)=O [Urea, urea]
[1]; [6]
  Relative initial rate of hydrolysis (%): 103 ± 13%

## O=C[C@H](O)[C@@H](O)[C@H](O)CO [Xylose, xylose]
[1]; [8]
  Relative initial rate of hydrolysis (%): 340 ± 20%
[1]; xylose 0.3 to 1.6 M (FIG. 4)
  maximal activity of BglC: 300-350%

B1: BglC: recombinant His-tagged beta glucosidase of Streptomyces scabies 87-22, SEQ ID NO:2 (protein, listed as Streptomyces scabiei)
chain: MPEPVNPATPVTFPPAFLWGAATSAYQIEGAVREDGRTPSIWDTFSHTPGKTAGGENGDIAVDHYHRYRDDVAMMADLGLNAYRFSVSWSRVQPTGRGPAVQKGLDFYRRLVDELLAKGIKPAVTLYHWDLPQELEDAGGWPERDIVHRFAEYARIMGEALGDRVEQWITLNEPWCTAFLGYGSGVHAPGRTDPVASLRAAHHLNVAHGLGVSALRSAMPARNSIAVSLNSSVVRPITSSPEDRAAARKIDDLANGVFHGPMLHGAYPETLFAATSSLTDWSFVRDGDVATAHQPLDALGLNYYTPALVGAADAGLEGPRADGHGASEHSPWPAADDVLFHQTPGERTEMGWTIDPTGLHELIMRYAREAPGLPMYVTENGAAYDDKMDADGRVHDPERIAYLHGHLRAVRRAIAEGADVRGYYLWSLMDNFEWAYGYGKRFGAVYVDYATLTRTPKSSAHWYGQAAKTGALPPLAPAPA
modifications: His6 tag
[2]
  Vmax: 7.3 µmol/min/mg
[2]; [9]
  Km: 770 µM
  Vmax: 7.3 µmol/min/mg
  kcat: 6.67 s⁻¹
[3]; 25° C., pH 5-10 tested
  optimal pH: around 7.5
[3]; 42° C., HEPES 50 mM pH 7.5 (FIG. 3A)
  activity relative to maximal activity: 10%
[4]; 6.25 mM substrate, 0.4 μM BglC, 0-60 min (FIG. 2)
  hydrolysis of cellobiose and cello-oligosaccharides (cellotriose to cellohexaose): able to generate glucose
[4]; 12.5 mM disaccharides
  hydrolysis of other disaccharides (saccharose, maltose, threalose, turanose): did not reveal hydrolysis
[4]; 12.5 mM, compared with cellobiose or cello-oligosaccharides
  hydrolysis of lactose: much less efficiency
[5]; between glucose and cellobiose, 7 days reaction, glucose only product detected
  transglycosylation activity: no or reduced transglycosylation activity
[5]; in 48 h (FIG. 5)
  cellobiose hydrolyzed: 80%
